How the values were obtained:
[1] = tested on: Oct-3/4 gene; test: Oct-3/4 gene expression level by real time PCR (ES cell differentiation inhibition assay 2); assay type: cell-based, mouse; details: D3ES cells, 7 days
Procedure: For the D3ES cells prepared by the method described in (3) preparation of a mouse ES cell of Example 1, 8×10^4 cells were seeded in a 10 cm-diameter cell culture dish coated previously with a 0.1% aqueous gelatin solution to make 10 mL of the ES cell assay medium. 1 mL of the differentiation inhibiting agent A to F, which were dissolved in dimethylsulfoxide (DMSO) or culture medium or their mixture to make 40 μg/mL per each dish, or ESGRO, which was adjusted to make 10^4 unit/mL, was added, and culturing was carried out at 37° C. in 5% […] incubator for 7 days. To the culture medium was added DMSO to make the final concentration 0.1% or lower.
A total RNA was extracted from the ES cells cultured by the method described in (1) ES cell differentiation inhibition assay 2 as described above, by using ISOGEN (K.K. Nippon Gene, Japan made) by the attached method. First, the medium was removed from the dish after the culture, the cells were washed twice with 10 mL of PBS, and dissolved in 1 mL of ISOGENE. After leaving stand at room temperature for 5 minutes, the solution was collected in a 1.5 mL Eppendorf tube. 0.2 mL of chloroform (Wako Pure Chemical Industries made) was added, shaken for 15 seconds and, then, left stand at room temperature for 2 or 3 minutes. The solution was centrifuged at 4° C. at 10000 rpm for 10 minutes by using a micro centrifuge (TOMY SEIKO Corp. made). 400 μL of the supernatant was transferred to a fresh 1.5 mL Eppendorf tube, 500 μL of isopropanol (Wako Pure, Chemical Industries made) was added, and left stand at room temperature for 10 minutes, and, then, centrifuged at 4° C. at 10000 rpm for 10 minutes by using the micro centrifuge. After the supernatant was removed, 1 mL of a 70% aqueous ethanol solution was added followed by shaking and, then, centrifugation was carried out at 4° C. at 10000 rpm for about 5 minutes by using, the micro centrifuge. After the supernatant was removed, a precipitation was dried and dissolved in 30 μL of distilled water to obtain the total RNA solution.
2 μg of the thus obtained total RNA was used as a template to synthesize a cDNA according to the attached protocol by using Deoxyribonuclease I (Amplification Grade)(Invitrogen Corp. made), Oligo(dT) 12-18 primer (Invitrogen Corp. made, 18418-012) and Omniscript reverse transcriptase (QIAGEN Corp, made). Thus, a reaction solution was prepared by adding 1 μL of 10× DNaseI Reaction Buffer, 1 μL of 10× DNaseI (all were made by Invitrogen Corp.) and distilled water to 2 μg of total RNA to make 10 μL in total, and the mixture was incubated at room temperature for 10 minutes. 1 μL of 25 mM EDTA solution was added and heated at 65° C. for 10 minutes. The mixture was cooled to room temperature, and then, 2 μL of 10× Buffer RT, 2 μL of 5 mM dNTP Mix, 2 μL of Oligo(dT) 12-18 primer, 0.25 μL of RNaseOUT (Invitrogen Corp. made, 10777-019) and 1 μL of Omniscript Reverse Transcriptase were added, and RNase-free purified water was added to give the total volume of 20 μL, and the mixture was incubated at 37° C. for 60 minutes to obtain cDNA solution. A portion of the synthesized cDNA obtained in such the way was diluted 5 folds with distilled water, and 2 μL of the solution was used as the template to conduct PCR by using Light Cycler-Fast Start DNA Master SYBR Green I Kit (Roche Diagnostics Corp. made) according to the attached protocol. The expression levels of the Oct-3/4 gene and glyceraldehyde-3-phosphate dehydrogenase (GAPDH) gene as the internal standard were measured. For amplifying the Oct-3/4 gene, sense primer OCT3 up (SEQ ID No.: 1) and antisense primer Oct3 down (SEQ ID No.: 2) were used, and for amplifying the GAPDH gene, sense primer GAPDH up (SEQ ID No.: 3) and antisense primer GAPDH down (SEQ ID No.: 4) were used. The composition of the PCR reaction solution and the reaction condition will be each presented below.

[2] = tested on: Nanog gene; test: Nanog gene expression level by real time PCR (ES cell differentiation inhibition assay 3); assay type: cell-based, mouse; details: D3ES cells, 4 μg/mL, 1 day, GAPDH internal standard, FIG. 7
Procedure: For the D3ES cells prepared by the method described in (3) preparation of a mouse ES cell of Example 1, 7.85×10^5 cells were seeded in a 10 cm-diameter cell culture dish coated previously with a 0.1% aqueous gelatin solution to make 10 mL of the ES cell assay medium. The differentiation inhibiting agent B of the present invention in the final concentration of 4 μg/mL or ESGRO in the final concentration of 1×10^3 unit/mL was added to each dish, and culturing was carried out at 37° C. in 5% CO2 incubator for 1 day.
The total RNA was extracted from the ES cell cultured by the method shown in (3) ES cell differentiation inhibition assay 3 as described above by using ISOGEN (K.K. Nippon Gene Corp. Japan made) by the attached method. In this method, the cell was collected in a 15 mL sterilized tube, centrifuged at 1,000 rpm for about 5 minutes by using the table centrifuge (TOMY SEIKO made) to make pellets. The supernatant was removed, the pellets were washed twice with 10 mL of PBS, and then, transferred to a 1.5 mL Eppendorf tube. The pellets were dissolved in 1 ml ISOGENE and left stand at room temperature for 5 minutes and, then, added with 0.2 mL of chloroform (Wako Pure Chemicals), shaken for 15 seconds, and left stand at room temperature for 2 or 3 minutes. Centrifugation was carried out at 4° C. at 10,000 rpm for 15 minutes by using the micro centrifuge (TOMY SEIKO made), 400 μL of the supernatant was transferred to a fresh 1.5 mL Eppendorf tube. 500 μL of isopropanol (Wako Pure Chemicals) was added and the mixture was left stand at room temperature for 10 minutes and, then, was centrifuged at 4° C. at 10,000 rpm for 10 minutes by using the micro centrifuge. The supernatant was removed and, then, 1 mL of a 70% ethanol aqueous solution was added. The mixture was shaken and then was centrifuged at 4° C. at 10,000 rpm for about 5 minutes by using the micro centrifuge. The supernatant was removed and the precipitation was dried and, then, dissolved in 30 μL of distilled water to obtain the total RNA solution.
The cDNA was synthesized by using 2 μg of the total RNA obtained by such the way as the template, using DeoxyribonucleaseI (Amplification Grade) (Invitrogen Corp. made) and SuperScript III First-Strand Synthesis System for RT-PCR (Invitrogen Corp. made, 18080-051) by the attached protocol. In this step, 1 μL of 10× DNaseI Reaction Buffer, 1 μL of 10× DNaseI (all these were of Invitrogen Corp. made) were added to 2 μg of the total RNA to give the total volume of 10 μL by adding distilled water to prepare the reaction solution, and then incubation was carried out at room temperature for 10 minutes. 1 μL of 25 mM EDTA solution was added, and the mixture was heated at 65° C. for 10 minutes and then, cooled to room temperature. 8 μL of the reaction solution was taken out, and 1 μL of […] Oligo(dT) 20 primer and 1 μL of 10 mM dNTP Mix were added, and incubation was carried out at 65° C. for 5 minutes. The reaction solution was placed on ice for 1 minute, and then 2 μL of 10× RT Buffer, 4 μL of 25 mM MgCl2, 2 μL of 0.1 M DTT, 1 μL of RNaseOUT (Invitrogen Corp. made) and 1 μL of SuperScript III RT were added for incubation at 50° C. for 50 minutes. Subsequently, incubation was carried out at 85° C. for 5 minutes, and then the mixture was left stand on ice for 1 min. […] The expression level of the Nanog gene and the glyceraldehyde-3-phosphate dehydrogenase (GAPDH) gene as the internal standard were measured. […]

COc1cccc(N=NC(C(N)=O)=C2NC(C)(C)Cc3ccccc32)c1 [D, 2-(3,3-dimethyl-3,4-dihydro-2H-isoquinoline-1-ylidene)-2-(3-methoxy-phenylazo)-acetamide]
expression of Oct-3/4 gene in comparison with ES cells cultured in the medium without the differentiation inhibiting agent ([1]; GAPDH internal standard, FIG. 6): significantly promoted
effect of keeping the expression of the Oct-3/4 gene relative to ESGRO ([1]; compared with 1,000 units/mL of ESGRO): comparable with 1,000 units/mL of ESGRO
expression level of Nanog gene in comparison with medium without agent and medium containing 1,000 units/mL of ESGRO [2]: increased similarly to the differentiation inhibiting agents B

— patent US8883504B2, “Cell differentiation suppressing agent, method of culturing cells using the same, culture solution, and cultured cell line” (Asahi Kasei Kabushiki Kaisha, priority 2003, dated 2014)
